Results: patent US20130303564A1, “METHOD FOR TREATING A NEURODEGENERATIVE DISORDER” (RUSH UNIVERSITY MEDICAL CENTER, priority 2012, published 2013)
Where two headings read alike, the source gives them in different places. Marks after values point to notes of the source that are not given here.

How the values were obtained:
primary human astroglia = conditions: 6 h preincubation, IL-1β 48 h
Protocol: (§1) Primary mouse microglia were treated with different concentrations of NaPB for 6 h followed by stimulation with LPS under serum-free condition. After 24 h of stimulation, concentrations of nitrite were measured in supernatants (A) and the level of iNOS protein was monitored in cells by Western blot (B). […] After 5 h of stimulation, the expression of iNOS mRNA was monitored by semi-quantitative RT-PCR (C). Cells preinctibated with different concentration of trichostatin A (TSA) and sodium butyrate (NaBu) for 6 h were stimulated with LPS for 24 h under serum-free condition followed by monitoring the level of nitrite in supernatants (p). […] Primary human astroglia isolated from fetal brain tissues were treated with different concentrations of NaPB for 6 h followed by stimulation with IL-1β under serum-free condition. After 48 h of stimulation, concentrations of nitrite (E) were measured in supernatants. Human astroglia plated at 70-80% confluence in 12-well plates were co-transfected with 0.25 μg of phiNOS(7.2)Luc and 12.5 ng of pRL-TK using the Lipofectamine-Plus (Invitrogen). Twenty-four h after transfection, cells received NaPB. After 6 h of incubation, cells were stimulated with IL-1β (20 ng/ml) for 12 h. Firefly (ff-Luc) and Renilla (r-Luc) luciferase activities were obtained by analyzing the total cell extract (F).

human iNOS promoter = conditions: phiNOS(7.2)Luc; 6 h preincubation, IL-1β 20 ng/ml 12 h
Protocol: as §1

NF-κB p65 = conditions: 200 mg/kg body wt/day gavage from 3 h after last MPTP; 24 h after last MPTP
From the text: Twenty-four h after the last injection of MPTP, ventral midbrain sections were immunostained for p65 (low magnification). Midbrain sections of MPTP-intoxicated mice were also double-labeled for p65 and glial cell markers (GFAP for astrocytes and CD11b for microglia). Results represent three independent experiments. D) NF-κB p65 positive cells counted in four nigral sections (two images per slide) from each of four mice in an Olympus IX81 fluorescence microscope using the MicroSuite™ imaging software are mentioned as cells/mm2. ^ap<0.0001 vs saline-control; ^bp<0.0001 vs MPTP.
Next, mice were treated with NaPB (200 mg/kg body wt/day) via gavage from 3 h after the last injection of MPTP and the activation of NF-κB was examined 24 h after the last injection of MPTP.
For acute MPTP intoxication, mice received four intraperitoneal (i.p.) injections of MPTP-HCl (18 mg/kg of free base; Sigma Chemical Co., St. Louis, Mo.) in saline at 2 hr intervals. Control animals received only saline.
For immunofluorescence staining on fresh frozen sections, rat anti-mouse CD11b (1:100), goat anti-mouse GFAP (1:100), rabbit anti NF-κB p65 (1:100), goat anti-NF-κB p65 (1:100), rabbit anti NF-κB p50 (1:100), and rabbit anti-mouse iNOS (1:250) were used. The samples were mounted and observed under a Bio-Rad MRC1024ES confocal laser scanning microscope.

phospho-IκBα = conditions: 0.5 mM, 6 h preincubation, LPS 1 μg/ml
Protocol: (A) BV-2 microglial cells preincubated with 0.5 mM NaPB for 6 h were stimulated with 1 μg/ml LPS. At different minute of stimulation, the level of phospho-1κBα was monitored by Western blot.
Activation of NF-κB was monitored by IκBαphosphorylation, DNA binding activity by EMSA and transcriptional activity by reporter assays.

GFAP = system: GFAP
Protocol: (§2) A) Mice were treated with NaPB (200 mg/kg body wt/d) from 3 h after the last injection of MPTP. Twenty-four h after the last injection of MPTP, ventral midbrain sections were immunostained for GFAP and CD11b. Results represent analyses of four nigral sections (two images per slide) from each of four mice. The mRNA expression GFAP and CD11b was analyzed by semi-quantitative RT-PCR (B) and quantitative real-time PCR (C).
(§3) Recently activation of glial cells is being considered as a pathological hallmark in PD and other neurodegenerative disorders. Increased expression of CD11b, the beta-integrin marker of microglia, represents microglial activation during neurodegenerative inflammation. Similarly, upon activation, astrocytes also express enhanced level of GFAP, which is considered as a marker protein for astrogliosis. We investigated if NaPB could attenuate MPTP-induced activation of glial cells in vivo in the nigra of mice.
(§4) Semi-quantitative RT-PCR analysis for proinflammatory molecules (iNOS, IL-1β and TNF-α) and glial cell markers: Total RNA was isolated from ventral midbrain using Ultraspec-II RNA reagent (Biotecx .Laboratories, Inc., Houston, Tex.) following manufacturer's protocol. To remove any contaminating genomic DNA, total RNA was digested with DNase. RT-PCR was carried out using a RT-PCR kit (Clontech., Mountain View, Calif.) and following primers.
(§5) Real-time PCR analysis: It was performed in the ABI-Prism7700 sequence detection system (Applied Biosystems, Foster City, Calif.) using TaqMan Universal Master mix and optimized concentrations of FAM-labeled probes and primers.

CD11b = system: CD11b
Protocol: as §2, §3, §4, §5

iNOS = system: iNOS
Protocol: (§6) A) Mice were treated with NaPB (200 mg/kg body wt/d) from 3 h after the last injection of MPTP. […] The mRNA expression of TNF-α, iNOS and IL-1β was analyzed by semi-quantitative RT-PCR (C) and quantitative real-time PCR (D).
as §4, §5

TNF-α [1] = conditions: 200 mg/kg body wt/d from 3 h after last MPTP; RT-PCR, real-time PCR
Protocol: as §6, §4, §5

IL-1β [2] = conditions: 200 mg/kg body wt/d from 3 h after last MPTP; RT-PCR, real-time PCR
Protocol: as §6, §4, §5

TNF-α [3] = system: TNF-α
Protocol: (§7) Activated microglia and astroglia are known to produce excessive amount of NO having the potential of damaging neurons in neurodegenerative disorders. We investigated the effect of NaPB on the expression of iNOS in microglia. LPS is a prototype inducer of various proinflammatory molecules in different cell types including mouse microglia. Therefore, primary mouse microglia preincubated with different doses of NaPB for 6 h were stimulated with LPS under serum-free condition. […] We used trichostatin A (TSA) and sodium butyrate (NaBu) for this purpose.
(§8) Isolation of Mouse Microglia: Microglia were isolated from mixed glial cultures. Briefly, on day 7-9, the mixed glial cultures were washed three times with Dulbecco's modified Eagle's medium/F-12 and subjected to shaking at 240 rpm for 2 h at 37° C. on a rotary shaker. The floating cells were washed and seeded on to plastic tissue culture flasks and incubated at 37° C. for 1 h. The attached cells were seeded onto new plates for further studies. […] Mouse BV-2 microglial cells (kind gift from Virginia Bocchini of Universityof Perugia) were also maintained and induced as indicated above.

IL-1β [4] = system: IL-1β
Protocol: as §7, §8

p21^rac [5] = conditions: 500 μM preincubation
Protocol: D) Cells preincubated with 500 μM NaPB were stimulated with LPS. At different time points, activation of p21^ras and p21^rac was monitored. Results represent three independent experiments.

p21^rac [6] = conditions: 200 mg/kg body wt/day gavage from 1 d prior to MPTP; 6 h after last MPTP
Protocol: A) Mice were treated with NaPB (200 mg/kg body wt/d.) via gavage from 1 d prior to MPTP injection. Six h after the last injection of MPTP, activation of p21^ras and p21^rac was monitored in ventral midbrain tissues. Experiment was repeated three times each time using two animal in each group. B) Bands from three different mice were quantified and activation of p21^ras and p21^rac is shown as percent of control, C) Mice were treated with NaPB (200 mg/kg body wt/d) from 3 h after the last injection of MPTP.
(§9) Animals and MPTP intoxications: Six- to eight-week old C57BL/6 mice were purchased from Harlan, Indianapolis, Ind. For acute MPTP intoxication, mice received four intraperitoneal (i.p.) injections of MPTP-HCl (18 mg/kg of free base; Sigma Chemical Co., St. Louis, Mo.) in saline at 2 hr intervals. Control animals received only saline.

[7] = system: chronic MPTP mouse model of PD; conditions: oral 100 mg/kg body wt/d from the third injection of MPTP/probenecid
Protocol: A) Six to eight week old male C57BL/6 mice received 10 injections of MPTP (s.c.; 25 mg/kg body weight) together with 10 injections of probenecid (i.p.; 250 mg/kg body weight) for 5 weeks. Control group of mice received only saline. One group of mice were treated with NaPB (100 mg/kg body weight/d) via gavage from the 3rd injection of MPTP/probenecid and continued for 1 week thereafter. Mice were tested for different motor tasks [horizontal activity (C), number of movements (D), rearing (E), and stereotypy (F)] one week after the last injection of MPTP followed by measuring the level of DA in striatum (B). Data are means+SEM of eight mice per group. ^ap<0.001 vs saline; ^bp<0.001 vs MPTP; p<0.05 vs saline; ^dp<0.05 vs MPTP.
We examined if NaPB was capable of protecting neurons in a chronic model (FIG. 10A). […] We initiated oral NaPB treatment (100 mg/kg body wt/d) from the third injection of MPTP/probenecid (FIG. 10A). […]
(§10) HPLC analysis of striatal dopamine and its metabolite levels: Striatal level of dopamine, DOPAC (3,4-dihydroxyphenylacetic acid) and HVA (homovanillic acid) was quantified. […] After pH adjustment and filtration, lOul of supernatant was injected onto an Eicompak SC-3ODS column (Complete Stand-Alone HPLC-ECD System EiCOMITTEC-500 from JM Science Inc., Grand Island, N.Y.) and analyzed following manufacturer's protocol.

MPTP-intoxicated mice = experiment: HPLC analysis of striatal dopamine in acute MPTP-intoxicated mice; format: in vivo, mouse; conditions: NaPB 200 mg/kg body wt/day from 3 h after last MPTP; 7 days; MPTP alone about 76% decrease
Protocol: Mice receiving NaPB (200 mg/kg body wt/day) from 3 h after the last injection of MPTP were sacrificed 7d after the last injection of MPTP followed by TH immunostaining of SNpc (A) and striatum (B), counting of TH-positive neurons in SNpc (C), quantification of TH-positive fibers in striatum (D), assay of neurotransmitters in striatum (E), and quantification of GSH in nigra (F). Data are means+SEM of eight mice per group. ^ap<0.0001 vs saline group; ^bp<0.0001 vs the MPTP group.
as §9, §10

[8] = 200 mg/kg body wt/d from 3 h after last MPTP, RT-PCR, real-time PCR
[9] = 200 mg/kg body wt/d oral from 3 h after last MPTP, 24 h, immunofluorescence
[10] = LPS + NaPB (0.1 mM), 6 hrs preincubation, LPS 24 hrs, supernatant ELISA
[11] = LPS + NaPB (0.2 mM), 6 hrs preincubation, LPS 24 hrs, supernatant ELISA
[12] = LPS + NaPB (0.5 mM), 6 hrs preincubation, LPS 24 hrs, supernatant ELISA

sodium phenylbutyrate [NaPB]
IL-1β-induced production of NO (primary human astroglia): markedly inhibited | IL-1β-induced activation of iNOS promoter (human iNOS promoter): markedly inhibited | level of p65 in the SNpc (NF-κB p65): markedly inhibited | LPS-induced phosphorylation of IκBα (phospho-IκBα): inhibited | MPTP-induced mRNA expression of GFAP in the nigra (GFAP; [8]): suppressed | GFAP protein expression in the nigra (GFAP; [9]): inhibition | MPTP-induced mRNA expression of CD11b in the nigra (CD11b; [8]): suppressed | CD11b protein expression in the nigra (CD11b; [9]): inhibition | MPTP-induced mRNA expression of iNOS in the nigra (iNOS; [8]): strongly inhibited | expression of iNOS mRNA in the nigra, time course (iNOS; 200 mg/kg body wt/d gavage from 1 d prior to MPTP, all time points tested (up to 24 h)): markedly inhibited | MPTP-induced expression of iNOS protein (iNOS; 200 mg/kg body wt/d oral from 3 h after last MPTP, 24 h): suppressed | MPTP-induced mRNA expression of TNF-α in the nigra (TNF-α [1]): strongly inhibited | MPTP-induced mRNA expression of IL-1β in the nigra (IL-1β [2]): strongly inhibited | TNF-α production (TNF-α [3]; [10]): 16.8 ± 1.5 ng/mg protein/24 hr | TNF-α production (TNF-α [3]; [11]): 12.7 ± 0.8 ng/mg protein/24 hr | TNF-α production (TNF-α [3]; [12]): 8.6 ± 1.1^a ng/mg protein/24 hr | TNF-α production (TNF-α [3]; NaPB (0.5 mM) only, no LPS): 0 ng/mg protein/24 hr | production of TNF-α protein in activated microglia (TNF-α [3]; Table 1): dose-dependently inhibited | IL-1β production (IL-1β [4]; [10]): 9.9 ± 1.4 ng/mg protein/24 hr | IL-1β production (IL-1β [4]; [11]): 7.5 ± 1.1 ng/mg protein/24 hr | IL-1β production (IL-1β [4]; [12]): 5.3 ± 0.6^a ng/mg protein/24 hr | IL-1β production (IL-1β [4]; NaPB (0.5 mM) only, no LPS): 0 ng/mg protein/24 hr | production of IL-1β protein in activated microglia (IL-1β [4]; Table 1): dose-dependently inhibited | LPS-induced activation of p21^rac (p21^rac [5]): markedly suppressed | MPTP-induced activation of p21^rac in the nigra (p21^rac [6]): much decreased activation | striatal DA [7]: significantly protected | decrease in striatal dopamine (MPTP-intoxicated mice): 20-25%
